Assay results published in patent US7390816B2, “Methods for treating urinary incontinence in patients suffering from memory disorders” (Bridge Pharma, Inc., priority 2005, dated 2008).
Like-named read-outs stand apart in the source and are kept apart here.

Legend:
[1] = test system: carbachol-induced contractions of urinary bladder smooth muscle strips; experiment: Antimuscarinic activity on bladder smooth muscle strips (carbachol-induced contractions); assay type: cell-based, guinea pigs; conditions: Cavia porcellus, read-out: KB for inhibition of carbachol-induced contractions
From the text: Conclusions: Trospium had slightly higher affinity for human muscarinic receptors than the reference compounds. The therapeutic activity of anti-muscarinic drugs in overactive human bladders are usually considered to be related to affinity for M-2/M-3 receptors, while the side effect xerostomia (dry mouth) is due mainly, but not exclusively, to inhibition of M-1 receptors in salivary glands. • 2. Functional Characterization of Antimuscarinic and Antispasmodic Activities on Bladder Smooth Muscle Strips. Methods: Experiments have now been performed using methods described by Kachur et al, J Pharmacol Exp Ther. 1988, 247: 867-872 and Noronha-Blob et al. J Pharmacol Exp Ther 256: 562-567. Strips of tissue (approximately 10 mm long and 1.5 mm wide) were removed from the urinary bladder of male guinea pigs. The tissues were suspended in an oxygenated buffer of the following composition, in mM: NaCl 133; KCl 4.7; CaCl2 2.5; MgSO4 0.6; NaH2PO4.1.3; NaHCO3 16.3; and glucose 7.7. The smooth muscle strips were maintained at or about 37.5° C. in tissue chambers and allowed to equilibrate with the bathing solution for one hour before proceeding with the experiment. […]

memory = experiment: Side effects concerning memory functions, T-shaped maze in conscious rats; assay type: in vivo; conditions: for Effect on memory: naive rats
Experimental: . Side effects concerning memory functions. Methods:
Conscious rats are used. The animals are placed at the base of a T-shaped maze with a reward placed in one of the arms of the maze. After the animals have learned where the reward is located, said reward is removed and it is investigated how long time it takes in the maze before the rats no longer selected the arm of the maze where the reward had been located. Experiments were also performed in rats that had been pretreated with phenylephrine to increase the permeability of the blood-brain barrier. Control groups of animals were treated with placebo (vehicle only) or with oxybutynin.

[2] = male guinea pig urinary bladder strips

SMILES | Kb [1, 2] [nM] | Kb [1] [nM] | Effect on memory (memory; T-shaped maze) | Effect on memory after phenylephrine pretreatment (memory; rats pretreated with phenylephrine to increase blood-brain barrier permeability) | Aggravation of existing memory impairment (memory; rats with memory disorder induced by oxybutynin, T-shaped maze)
CC(CC(c1ccccc1)c1ccccc1)NC(C)(C)C (centres unmarked) [terodiline] | 1.5 to 5.5 | – | – | – | –
Cc1ccc(O)c([C@H](CCN(C(C)C)C(C)C)c2ccccc2)c1 [Tolterodine] | – | 1.5 to 5.5 | – | – | –
O=C(OC1CC2CCC(C1)[N+]21CCCC1)C(O)(c1ccccc1)c1ccccc1 (centres unmarked) [Trospium, azoniaspiro (3[…]-benziloyl-oxynortro-pane-8,1′-pyrrolidine) chloride] | – | 1.5 to 5.5 | does not influence the memory | did not uncover any impairment of memory | no further aggravation of memory impairment
CCN(CC)CC#CCOC(=O)C(O)(c1ccccc1)C1CCCCC1 (centres unmarked) [Oxybutynin] | 1.5 to 5.5 | – | memory is impaired | – | –
